According to PubChem BioAssay AID248 (DTP/NCI, 2004):
Toxic doses and inconclusive results are not listed. Cut-off read from the data, not from the text of the source: active = T/C of 150% or more; inactive = T/C below 125%.

Test system: L1210 leukemia ip in BDF1 mice, survival T/C
Assay: NCI In Vivo Anticancer Drug Screen. Data for tumor model L1210 Leukemia (intraperitoneal) in B6D2F1 (BDF1) mice
Settings: endpoint: mean survival time, higher = longer survival
Procedure, shortened: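 Each compound was tested against a transplantable tumor grown in mice. The endpoint was survival, with treated animals benchmarked against vehicle controls as a simple ratio.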

[1] = dose: 100.0 mg/kg/injection, schedule: Q04DX003 (ip), vehicle: Klucel (hydroxypropylcellulose) (HPC)
[2] = dose: 200.0 mg/kg/injection, schedule: Q04DX003 (ip), vehicle: Klucel (hydroxypropylcellulose) (HPC)
[3] = dose: 400.0 mg/kg/injection, schedule: Q04DX003 (ip), vehicle: Klucel (hydroxypropylcellulose) (HPC)
[4] = dose: 100.0 mg/kg/injection, schedule: Q01DX009 (ip), vehicle: Klucel (hydroxypropylcellulose) (HPC)
[5] = dose: 200.0 mg/kg/injection, schedule: Q01DX009 (ip), vehicle: Klucel (hydroxypropylcellulose) (HPC)
[6] = dose: 400.0 mg/kg/injection, schedule: Q01DX009 (ip), vehicle: Klucel (hydroxypropylcellulose) (HPC)
[7] = dose: 100.0 mg/kg/injection, schedule: Q04DX003 (ip), vehicle: saline with Tween-80
[8] = dose: 100.0 mg/kg/injection, schedule: Q04DX002 (ip), vehicle: Klucel (hydroxypropylcellulose) (HPC)
[9] = dose: 100.0 mg/kg/injection, schedule: Q04DX002 (ip), vehicle: saline with Tween-80
[10] = dose: 200.0 mg/kg/injection, schedule: Q04DX002 (ip), vehicle: saline with Tween-80
[11] = dose: 100.0 mg/kg/injection, schedule: Q01DX001 (ip), vehicle: saline
[12] = dose: 200.0 mg/kg/injection, schedule: Q01DX001 (ip), vehicle: saline
[13] = dose: 400.0 mg/kg/injection, schedule: Q01DX001 (ip), vehicle: saline
[14] = dose: 100.0 mg/kg/injection, schedule: Q04DX003 (ip), vehicle: saline
[15] = dose: 200.0 mg/kg/injection, schedule: Q04DX003 (ip), vehicle: saline
[16] = dose: 400.0 mg/kg/injection, schedule: Q04DX003 (ip), vehicle: saline
[17] = dose: 100.0 mg/kg/injection, schedule: Q01DX001 (ip), vehicle: carboxymethylcellulose (CMC)
[18] = dose: 200.0 mg/kg/injection, schedule: Q01DX001 (ip), vehicle: carboxymethylcellulose (CMC)
[19] = dose: 400.0 mg/kg/injection, schedule: Q01DX001 (ip), vehicle: carboxymethylcellulose (CMC)

Measured: T/C

O=C(Nc1ccc(NC(=O)C(Cl)Cl)cc1)C(Cl)Cl
inactive: [1] 97 % of control | [2] 101 % of control | [3] 90 % of control

COc1cc2c(cc1OC)C1=CC(=O)N3CCCC34OS(=O)OC14CC2 (centres undefined)
inactive: [4] 97 % of control | [1] 98 % of control | [5] 100 % of control | [2] 96 % of control | [6] 96 % of control | [3] 96 % of control

NC(=O)N/N=C\c1ccco1
inactive: dose: 25.0 mg/kg/injection, schedule: Q04DX003 (ip), vehicle: saline with Tween-80 106 % of control | dose: 50.0 mg/kg/injection, schedule: Q04DX003 (ip), vehicle: saline with Tween-80 100 % of control | [1] 106 % of control | [7] 94 % of control | [2] 102 % of control | [3] 98 % of control

CCCCN(CCCCS(=O)(=O)O)c1ccc(N=Nc2cc(Cl)ccc2Cl)cc1
inactive: [1] 94 % of control | [2] 105 % of control

COc1ccc(CCOC(C)=O)cc1OC
inactive: [8] 102 % of control | dose: 200.0 mg/kg/injection, schedule: Q04DX002 (ip), vehicle: Klucel (hydroxypropylcellulose) (HPC) 97 % of control | dose: 400.0 mg/kg/injection, schedule: Q04DX002 (ip), vehicle: Klucel (hydroxypropylcellulose) (HPC) 97 % of control

O=[N+]([O-])c1ccc(Nc2ccccc2)c([N+](=O)[O-])c1
inactive: dose: 50.0 mg/kg/injection, schedule: Q04DX002 (ip), vehicle: Klucel (hydroxypropylcellulose) (HPC) 103 % of control | [8] 92 % of control

O=[N+]([O-])c1ccccc1N1CCCCC1
inactive: [1] 97 % of control | [2] 89 % of control | [3] 109 % of control

CCCCCCC(O)C(=O)O (centres undefined)
inactive: [9] 102 % of control | [10] 102 % of control

c1ccc2cc(SCCCN3CCOCC3)ccc2c1
inactive: dose: 100.0 mg/kg/injection, schedule: Q01DX009 (ip), vehicle: saline sonified 97 % of control | [1] 95 % of control | dose: 200.0 mg/kg/injection, schedule: Q01DX009 (ip), vehicle: saline sonified 116 % of control | [2] 95 % of control | [3] 90 % of control

O=[N+]([O-])c1ccc(O)c(C=NCCCN=Cc2cc([N+](=O)[O-])ccc2O)c1
inactive: [11] 90 % of control | [12] 102 % of control | [13] 96 % of control

CN1CN(c2ccccc2)C2(CCN(C3(c4ccccc4)CCCCC3)CC2)C1=O
inactive: dose: 50.0 mg/kg/injection, schedule: Q01DX001 (ip), vehicle: saline 102 % of control | [11] 92 % of control | [12] 94 % of control

[I][Pb]([c]1ccccc1)([c]1ccccc1)[c]1ccccc1
inactive: dose: 12.5 mg/kg/injection, schedule: Q04DX003 (ip), vehicle: Klucel (hydroxypropylcellulose) (HPC) 98 % of control | dose: 25.0 mg/kg/injection, schedule: Q04DX003 (ip), vehicle: Klucel (hydroxypropylcellulose) (HPC) 94 % of control

COC(=O)c1[nH]c(=O)[nH]c(=O)c1[N+](=O)[O-]
inactive: dose: 75.0 mg/kg/injection, schedule: Q01DX001 (ip), vehicle: saline 106 % of control | dose: 150.0 mg/kg/injection, schedule: Q01DX001 (ip), vehicle: saline 93 % of control | dose: 300.0 mg/kg/injection, schedule: Q01DX001 (ip), vehicle: saline 93 % of control

O=NN(C(=O)NC1CCCCC1Cl)C1CCCCC1Cl (centres undefined)
inactive: dose: 8.0 mg/kg/injection, schedule: Q01DX001 (ip), vehicle: carboxymethylcellulose (CMC) 102 % of control | dose: 12.0 mg/kg/injection, schedule: Q01DX001 (ip), vehicle: carboxymethylcellulose (CMC) 106 % of control | dose: 18.0 mg/kg/injection, schedule: Q01DX001 (ip), vehicle: carboxymethylcellulose (CMC) 106 % of control | dose: 26.0 mg/kg/injection, schedule: Q01DX001 (ip), vehicle: carboxymethylcellulose (CMC) 106 % of control | dose: 40.0 mg/kg/injection, schedule: Q01DX001 (ip), vehicle: carboxymethylcellulose (CMC) 107 % of control | dose: 60.0 mg/kg/injection, schedule: Q01DX001 (ip), vehicle: carboxymethylcellulose (CMC) 98 % of control | dose: 93.0 mg/kg/injection, schedule: Q01DX001 (ip), vehicle: carboxymethylcellulose (CMC) 104 % of control | dose: 187.0 mg/kg/injection, schedule: Q01DX001 (ip), vehicle: carboxymethylcellulose (CMC) 102 % of control | dose: 375.0 mg/kg/injection, schedule: Q01DX001 (ip), vehicle: carboxymethylcellulose (CMC) 96 % of control

NC1(C(=O)O)CCc2ccccc2C1 (centres undefined)
inactive: [1] 91 % of control | [3] 99 % of control

CC12CCC(O)CC1=CCC1C2CCC2(C)C(C(O)CC(O)(C(F)(F)F)C(F)(F)F)CCC12 (centres undefined)
inactive: [7] 92 % of control | dose: 200.0 mg/kg/injection, schedule: Q04DX003 (ip), vehicle: saline with Tween-80 93 % of control | dose: 400.0 mg/kg/injection, schedule: Q04DX003 (ip), vehicle: saline with Tween-80 93 % of control

COc1ccc(CCN2C(=O)c3cccc4c(Sc5ccccc5[N+](=O)[O-])ccc(c34)C2=O)cc1OC
inactive: [9] 90 % of control | [10] 111 % of control | dose: 400.0 mg/kg/injection, schedule: Q04DX002 (ip), vehicle: saline with Tween-80 93 % of control

C#CCOC(=O)NCC
inactive: [14] 101 % of control | [15] 102 % of control | [16] 96 % of control

COc1ccc2c(c1)CCC1C2CCC2(C)C(=O)OC(=O)C12 (centres undefined)
inactive: dose: 100.0 mg/kg/injection, schedule: Q01DX009 (sc), vehicle: steriod suspending solution 109 % of control | dose: 200.0 mg/kg/injection, schedule: Q01DX009 (sc), vehicle: steriod suspending solution 98 % of control | dose: 400.0 mg/kg/injection, schedule: Q01DX009 (sc), vehicle: steriod suspending solution 103 % of control

CS(=O)(=O)n1c(CO)nc2ccccc21
inactive: [17] 101 % of control | [18] 92 % of control | [19] 97 % of control

O=C(C(=O)c1ccc(O)cc1)c1ccccc1
inactive: [17] 103 % of control | [18] 97 % of control | [19] 97 % of control

Cc1cccc(NNC(N)=O)c1
inactive: dose: 55.0 mg/kg/injection, schedule: Q01DX Z (ip), vehicle: saline 103 % of control | dose: 83.0 mg/kg/injection, schedule: Q01DX Z (ip), vehicle: saline 97 % of control | dose: 125.0 mg/kg/injection, schedule: Q01DX Z (ip), vehicle: saline 101 % of control

O=C(NCCCCC(NC(=O)c1ccccc1)C(=O)NCCCCCCNCCCCCCNC(=O)C(CCCCNC(=O)c1ccccc1)NC(=O)c1ccccc1)c1ccccc1 (centres undefined)
inactive: dose: 10.0 mg/kg/injection, schedule: Q01DX Z (ip), vehicle: saline 96 % of control | dose: 30.0 mg/kg/injection, schedule: Q01DX Z (ip), vehicle: saline 102 % of control | dose: 100.0 mg/kg/injection, schedule: Q01DX Z (ip), vehicle: saline 100 % of control | dose: 300.0 mg/kg/injection, schedule: Q01DX Z (ip), vehicle: saline 100 % of control

Cc1coc(NS(=O)(=O)c2ccc(N=Nc3c(N)nc(N)[nH]c3=O)cc2)c1C
inactive: [11] 109 % of control | [12] 102 % of control | [13] 105 % of control

COC(=O)C(C)CN1CC(C)OC(C)C1 (centres undefined)
inactive: dose: 100.0 mg/kg/injection, schedule: Q01DX009 (ip), vehicle: saline 95 % of control | [14] 102 % of control | dose: 200.0 mg/kg/injection, schedule: Q01DX009 (ip), vehicle: saline 97 % of control | [15] 98 % of control | dose: 400.0 mg/kg/injection, schedule: Q01DX009 (ip), vehicle: saline 95 % of control | [16] 104 % of control

CCCCCCCCOC(=O)CCCc1ccc(N(CCCl)CCCl)cc1
inactive: dose: 100.0 mg/kg/injection, schedule: Q04DX002 (ip), vehicle: saline 104 % of control | dose: 200.0 mg/kg/injection, schedule: Q04DX002 (ip), vehicle: saline 108 % of control | dose: 400.0 mg/kg/injection, schedule: Q04DX002 (ip), vehicle: saline 111 % of control

Cc1cc(C)c(S(=O)(=O)Nc2ccccc2F)c(C)c1
inactive: [4] 98 % of control | [5] 110 % of control | [6] 93 % of control
